Measured values from publication PMC7456892 (Frontiers in Plant Science, 2020).
Entries after “also recorded” stand apart in the source; their conditions may differ. Where no end group is shown, it is not given here.

Legend:
pepsin [1] = assay: SGF (200 mg NaCl, 10 units pepsin/µg test protein, pH 1.2); conditions: 37°C, up to 60 min
pepsin [2] = biological target: pepsin (Sus scrofa, UniProt P00791); assay: Simulated Gastric Fluid (SGF) pepsin digestion assay; format: in vitro ADME; conditions: pH 1.2
Description: Protein samples were analyzed for degradation by SDS PAGE followed by staining with RAPIDStain (Calbiochem) for 1 h after intense washing with ultrapure water. Digestion products from the SGF assays were analyzed by Matrix-assisted laser desorption/ionization time of flight (MALDI TOF) mass spectrometry. Samples were pre-incubated with 0.5 μl of 40 mM DTT for 20 min on the ground steel plate to reduce disulfide bonds. The samples were subsequently mixed with 2,5-dihydroxybenzoic acid (DHB) and the mass to charge ratio was measured for each sample using a Bruker Daltonics Ultraflex III MALDI-TOF/TOF Mass Spectrometer.

F. graminearum = format: cell-based, Fusarium graminearum isolate 73B1A; conditions: growth assay, 25°C, dark, 24 h, OD 595 nm
C. graminicola = format: cell-based, Colletotrichum graminicola isolate Carroll-1A-99; conditions: growth assay, 25°C, dark, 40 h, OD 595 nm
pancreatin = conditions: 37°C, up to 60 min

Chain of pepsin (Sus scrofa, UniProt P00791) (P00791 60-385): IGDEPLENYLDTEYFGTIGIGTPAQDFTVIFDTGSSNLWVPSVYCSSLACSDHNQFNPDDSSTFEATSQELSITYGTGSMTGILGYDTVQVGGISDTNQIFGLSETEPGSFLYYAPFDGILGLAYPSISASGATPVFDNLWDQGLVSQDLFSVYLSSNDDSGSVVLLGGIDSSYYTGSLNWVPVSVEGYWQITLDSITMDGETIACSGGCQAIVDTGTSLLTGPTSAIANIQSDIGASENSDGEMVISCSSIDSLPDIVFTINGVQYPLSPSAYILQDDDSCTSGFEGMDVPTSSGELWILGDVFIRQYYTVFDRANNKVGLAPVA
Description for trypsin (pancreatin): Aliquots (320 µl) of each of SIF (60 mM KH2PO4, pH 7.5, 12 mg/ml pancreatin), SIF minus pancreatin and ultrapure water were added to individual glass vials with stir bars on a submersible stir plate (2mag MIX drive, Sigma Aldrich) in a 37°C water bath for 2 min before the addition of 40 µl of test protein (5 mg/ml) to each vial. Azoalbumin (A-2382, Sigma Aldrich) at a final concentration of 10 mg/ml in ultrapure water was used as the positive control for protease digestion. Protein degradation was assessed by SDS PAGE as described above.

Substance | not cleaved (pepsin [1]) | cleaved bond (pepsin [1]) | other results
RECKTESHRFKGPCITKPPCRKACISEKFTDGHCSKILRRCLCTKPC | not degraded in SGF (60 min) | – | –
RECKTESRAFALECITKPPCRKACISEKFTDGHCSKILRRCLCTKPC | – | A9-F10, 60 min | –
RECKTESHRFKGPCITKPPCRKACISEFFTDGHCSKILRRCLCTKPC | – | F28-F29, 10 min; also recorded: T16-K17, 10 min | –
NaD1-C3S-C47S: NaD1 variant lacking the Cys3-Cys47 (fourth) disulfide bond (RESKTESNTFPGICITKPPCRKACISEKFTDGHCSKILRRCLCTKPS; not fully specified; ends and bridges not checked; UniProt Q8GTM0 26-72, looked up, variant C3S C47S) | – | – | Digestion in SGF, result in words (pepsin [2]): partially digested; Antifungal activity against F. graminearum compared with wild type defensin, in words (F. graminearum): as active as unmodified NaD1; Antifungal activity against C. graminicola compared with wild type defensin, in words (C. graminicola): as active as unmodified NaD1; Size of peptides after digestion in SIF (trypsin (pancreatin)): less than 2300 Da
NaD1: class II plant defensin from the ornamental tobacco Nicotiana alata, purified from flowers (RECKTESNTFPGICITKPPCRKACISEKFTDGHCSKILRRCLCTKPC; ends and bridges not checked; cysteine pairing not given here; UniProt Q8GTM0 26-72, looked up) | – | – | Mass of fragments Da at 60 min (pepsin [2]): 5296 Da
KDCLTRRHGFQGRCLFDRQCAHVCRSDGFIGGQCRGPLRKCFCSRPC | stable in the SGF assay for more than 60 min | – | –
RECKTESNTFPGICITKPPCRKACISEKFTDGHCSKILRRCLCTKPC | stable in the SGF assay for more than 60 min; also recorded: not cleaved | – | not cleaved (pancreatin): not digested by SIF (60 min)
RESKTESRAFALECITKPPCRKACISEFFTDGHCSKILRRCLCTKPS | – | A9-F10, within 1 minute; also recorded: F28-F29, within 1 minute | –
